Results as given in patent US11613525B2 (CTXT PTY LIMITED, priority 2018, dated 2023).
Like-named read-outs stand apart in the source and are kept apart here.

Experiments:
human STING (HAQ) [1] = target: T1, human STING (HAQ) (Homo sapiens, UniProt Q86WV6, G230A/H232R/R293Q); test: biochemical; type: binding; details: for ΔTm at 100 µM: read-out: DSF huSTING (HAQ) ΔTm (° C.)
Method: (§1) DSF monitors thermal unfolding of protein in the presence of a fluorescent dye and is typically performed using a real-time PCR instrument. The temperature at which a protein unfolds is measured by an increase in the fluorescence of a dye with affinity for hydrophobic parts of the protein that are gradually exposed during unfolding. The fluorescence of the dye is quenched in aqueous environments, but when the dye associates with hydrophobic sites on the unfolded protein, its fluorescence increases. The fluorescence intensity is plotted as a function of the temperature, generating a sigmoidal curve that can be described by a two-state transition. The inflection point of the transition curve (Tm) is calculated using simple equations such as that of Boltzman.
(§2) Sealed plates were then placed into a Bio-Rad CFX96/C1000 thermocycler and FRET scanning mode (λ^excitation of 490 nm and reads at λ^emission of 570 nm) was used to measure fluorescence intensity. […] The melting point (Tm) obtained for STING protein alone was subtracted from Tm obtained for protein incubated with ligand to generate ΔTm values listed in the table below.
(§3) These additional compounds were tested as described above, however the protein concentration was 2 μM.

huSTING (HAQ) = huSTING (HAQ) (Homo sapiens (Human), UniProt Q86WV6, G230A/H232R/R293Q/R71H); test: THP-1 reporter cell line assay, THP-1 STING Lucia ISG cells; type: cell-based
Chain of huSTING (HAQ) (Q86WV6 whole entry R71H/G230A/H232R/R293Q): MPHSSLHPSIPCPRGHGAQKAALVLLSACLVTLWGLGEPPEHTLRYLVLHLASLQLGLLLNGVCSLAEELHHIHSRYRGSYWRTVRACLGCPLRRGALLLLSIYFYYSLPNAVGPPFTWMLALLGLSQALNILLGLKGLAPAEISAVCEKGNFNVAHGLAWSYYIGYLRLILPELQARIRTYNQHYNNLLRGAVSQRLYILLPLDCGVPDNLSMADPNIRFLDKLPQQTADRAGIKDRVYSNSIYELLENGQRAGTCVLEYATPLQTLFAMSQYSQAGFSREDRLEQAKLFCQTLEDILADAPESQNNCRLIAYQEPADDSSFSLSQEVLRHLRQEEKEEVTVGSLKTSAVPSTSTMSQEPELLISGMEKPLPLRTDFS

huSTING (WT) [2] = target: T2, huSTING (WT) (Homo sapiens (Human), UniProt Q86WV6, H232R); test: THP-1 reporter cell line assay, THP-1-Dual KI-hSTING-R232 cells; type: cell-based
Target sequence in this assay (Q86WV6 whole entry H232R): as the sequence (Q86WV6 whole entry R71H/G230A/H232R/R293Q) above, with H71R, A230G, Q293R counted along it

human STING (HAQ) [3] = target: T1, human STING (HAQ); details: read-out: SPR (HAQ) KD; 25° C.
huSTING (WT) [4] = target: T2, huSTING (WT); test: Differential scanning fluorimetry (DSF), huSTING (WT); type: binding; details: for ΔTm at 100 µM: read-out: DSF huSTING (WT) ΔTm (° C.)
Method: as §1, §2, §3
Target sequence in this assay (Q86WV6 other isoform, or with tags, fused parts or gaps, stated change not applied): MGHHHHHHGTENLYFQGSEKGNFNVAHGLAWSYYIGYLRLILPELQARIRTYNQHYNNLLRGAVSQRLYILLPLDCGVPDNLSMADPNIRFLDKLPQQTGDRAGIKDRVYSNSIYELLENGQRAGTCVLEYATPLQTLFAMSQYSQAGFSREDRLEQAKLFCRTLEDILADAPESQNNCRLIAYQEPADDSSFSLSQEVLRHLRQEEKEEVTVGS

[5] = 1 μM protein, compound at 100 μM
[6] = THP-1 STING Lucia ISG cells, 24 h, top concentration 50 μM, read-out: Cellular EC50 huSTING (HAQ)
[7] = read-out: Cellular EC50 huSTING (WT)
[8] = compound 100 μM, protein concentration 2 μM
[9] = THP-1 STING Lucia ISG cells, modified method, top concentration 40 μM, pin tool, EnVision, read-out: Cellular EC50 huSTING (HAQ)

T1 sequence (Q86WV6 whole entry G230A/H232R/R293Q, looked up): as the sequence (Q86WV6 whole entry R71H/G230A/H232R/R293Q) above, with H71R counted along it

Row | SMILES | EC50 (huSTING (HAQ); [6]) [µM] | EC50 (huSTING (WT) [2]; [7]) [µM] | ΔTm at 100 µM (human STING (HAQ) [1]) [°C] | ΔTm at 100 µM (huSTING (WT) [4]; [5]) [°C] | DSF huSTING (WT) ΔTm (° C.) (huSTING (WT) [4]; [8]) [°C] | EC50 (huSTING (HAQ); [9]) [µM] | also measured
1 | NC(=O)c1ccc(OCc2c(C(=O)OCc3ccccc3)sc3cccc(F)c23)cc1 [Example 3, Benzyl 3-((4-carbamoylphenoxy)methyl)-4-fluorobenzo[b]thiophene-2-carboxylate] | 2.94 | > 50 | – | – | – | – | DSF huSTING (HAQ) ΔTm (° C.) (human STING (HAQ) [1]; [5]): −0.47 °C; Kd (human STING (HAQ) [3]): 3500 µM
2 | CCOC(=O)c1sc2ccccc2c1COc1ccc(C(N)=O)cc1 [Example 5, Ethyl 3-((4-carbamoylphenoxy)methyl)benzo[b]thiophene-2-carboxylate] | 8.22 | > 50 | -0.48 | 0.07 | – | – | –
3 | CCOC(=O)c1sc2cc(Cl)ccc2c1COc1ccc(C(N)=O)cc1 [Example 9, Ethyl 3-((4-carbamoylphenoxy)methyl)-6-chlorobenzo[b]thiophene-2-carboxylate] | > 50 | > 50 | 0.71 | 0.51 | – | – | –
4 | CCOC(=O)c1sc2c(Cl)cccc2c1COc1ccc(C(N)=O)cc1 [Example 11, Ethyl 3-((4-carbamoylphenoxy)methyl)-7-chlorobenzo[b]thiophene-2-carboxylate] | 16.2 | 25.6 | 0.29 | 0.13 | – | – | –
5 | CCOC(=O)c1sc2ccc(Cl)cc2c1COc1ccc(C(N)=O)cc1 [Example 13, Ethyl 3-((4-carbamoylphenoxy)methyl)-5-chlorobenzo[b]thiophene-2-carboxylate] | > 50 | > 50 | -0.15 | -0.59 | – | – | –
6 | NC(=O)c1ccc(OCc2c(C(=O)O)sc3cccc(Cl)c23)c(F)c1F [Example 67, 3-((4-Carbamoyl-2,3-difluorophenoxy)methyl)-4-chlorobenzo[b]thiophene-2-carboxylic acid] | > 50 | > 50 | 11.1 | 3.04 | – | – | –
7 | NC(=O)c1cc(F)c(OCc2c(C(=O)O)sc3cccc(Cl)c23)c(F)c1 [Example 69, 3-((4-Carbamoyl-2,6-difluorophenoxy)methyl)-4-chlorobenzo[b]thiophene-2-carboxylic acid] | – | – | – | – | – | – | DSF huSTING (HAQ) ΔTm (° C.) (human STING (HAQ) [1]; [5]): 22.08 °C; ΔTm at 100 µM (huSTING (WT) [4]): 9.49 °C
8 | NC(=O)c1ccc(NCc2c(C(=O)O)sc3cccc(Cl)c23)cc1 [Example 76, 3-(((4-Carbamoylphenyl)amino)methyl)-4-chlorobenzo[b]thiophene-2-carboxylic acid] | 2.68 | 0.217 | 2.43 | -2.72 | – | – | –
9 | Cc1cccc2sc(C(=O)O)c(COc3ccc(C(N)=O)cc3)c12 [Example 78, 3-((4-Carbamoylphenoxy)methyl)-4-methylbenzo[b]thiophene-2-carboxylic acid] | > 50 | > 50 | 16 | 6.62 | – | – | –
10 | NC(=O)c1cc(F)c(OCc2c(C(=O)O)sc3c(F)ccc(F)c23)c(F)c1 [Example 80, 3-((4-Carbamoyl-2,6-difluorophenoxy)methyl)-4,7-difluorobenzo[b]thiophene-2-carboxylic acid] | 38.6 | > 50 | 14.9 | 6.69 | – | – | –
11 | NC(=O)c1ccc(OCc2c(C(=O)O)sc3c(F)ccc(F)c23)cc1 [Example 82, 3-((4-Carbamoylphenoxy)methyl)-4,7-difluorobenzo[b]thiophene-2-carboxylic acid] | > 50 | > 50 | 9.29 | 3.15 | – | – | –
12 | NC(=O)c1ccc(OCc2c(C(=O)O)sc3ccc(F)c(Cl)c23)cc1 [Example 84, 3-((4-Carbamoylphenoxy)methyl)-4-chloro-5-fluorobenzo[b]thiophene-2-carboxylic acid] | > 50 | > 50 | 6.48 | 0.18 | – | – | –
13 | NC(=O)c1cc(F)c(OCc2c(C(=O)O)sc3ccc(F)c(Cl)c23)c(F)c1 [Example 86, 3-((4-Carbamoyl-2,6-difluorophenoxy)methyl)-4-chloro-5-fluorobenzo[b]thiophene-2-carboxylic acid] | > 50 | > 50 | 10.1 | 3.33 | – | – | –
14 | CN(C)C(=O)COC(=O)c1sc2cccc(Cl)c2c1COc1c(F)cc(C(N)=O)cc1F [Example 127, 2-(Dimethylamino)-2-oxoethyl 3-((4-carbamoyl-2,6-difluorophenoxy)methyl)-4-chlorobenzo[b]thiophene-2-carboxylate] | – | 0.229 | – | – | −2.44 | 0.026 | –
15 | CCOP(=O)(COC(=O)c1sc2cccc(Cl)c2c1COc1c(F)cc(C(N)=O)cc1F)OCC [Example 143, (Diethoxyphosphoryl)methyl 3-((4-carbamoyl-2,6-difluorophenoxy)methyl)-4-chlorobenzo[b]thiophene-2-carboxylate] | – | – | – | – | – | – | DSF huSTING (HAQ) ΔTm (° C.) (human STING (HAQ) [1]): −2.10 °C; DSF huSTING (WT) ΔTm (° C.) (huSTING (WT) [4]): −1.93 °C; EC50 (huSTING (HAQ)): 0.018 µM; EC50 (huSTING (WT) [2]): 0.381 µM
16 | NC(=O)CNC(=O)c1sc2cccc(Cl)c2c1COc1c(F)cc(C(N)=O)cc1F [Example 148, N-(2-Amino-2-oxoethyl)-3-((4-carbamoyl-2,6-difluorophenoxy)methyl)-4-chlorobenzo[b]thiophene-2-carboxamide] | – | > 40 | – | – | −0.37 | 4.07 | –
17 | COCCOC(=O)c1sc2cccc(Cl)c2c1COc1c(F)cc(C(N)=O)cc1F [Example 158, 2-Methoxyethyl 3-((4-carbamoyl-2,6-difluorophenoxy)methyl)-4-chlorobenzo[b]thiophene-2-carboxylate] | – | – | – | – | – | – | DSF huSTING (HAQ) ΔTm (° C.) (human STING (HAQ) [1]): −1.58 °C; DSF huSTING (WT) ΔTm (° C.) (huSTING (WT) [4]): −1.90 °C; EC50 (huSTING (HAQ)): 0.132 µM; EC50 (huSTING (WT) [2]): 0.949 µM
18 | CC(=O)NCCOC(=O)c1sc2cccc(Cl)c2c1COc1c(F)cc(C(N)=O)cc1F [Example 159, 2-Acetamidoethyl 3-((4-carbamoyl-2,6-difluorophenoxy)methyl)-4-chlorobenzo[b]thiophene-2-carboxylate] | – | 0.325 | – | – | −1.02 | 0.044 | –
19 | COC(=O)NCCOC(=O)c1sc2cccc(Cl)c2c1COc1c(F)cc(C(N)=O)cc1F [Example 160, 2-((Methoxycarbonyl)amino)ethyl 3-((4-carbamoyl-2,6-difluorophenoxy)methyl)-4-chlorobenzo[b]thiophene-2-carboxylate] | – | 0.298 | – | – | −1.05 | 0.035 | –
20 | COC(=O)N(C)CCOC(=O)c1sc2cccc(Cl)c2c1COc1c(F)cc(C(N)=O)cc1F [Example 161, 2-((Methoxycarbonyl)(methyl)amino)ethyl 3-((4-carbamoyl-2,6-difluorophenoxy)methyl)-4-chlorobenzo[b]thiophene-2-carboxylate] | – | 0.669 | – | – | −1.76 | 0.062 | –
21 | COCCCOC(=O)c1sc2cccc(Cl)c2c1COc1c(F)cc(C(N)=O)cc1F [Example 162, 3-Methoxypropyl 3-((4-carbamoyl-2,6-difluorophenoxy)methyl)-4-chlorobenzo[b]thiophene-2-carboxylate] | – | 0.302 | – | – | −1.01 | 0.041 | –
22 | NC(=O)c1ccc(OCc2c(C(=O)NCCc3ccccc3)sc3cccc(Br)c23)cc1 [Example 167, 4-Bromo-3-((4-carbamoylphenoxy)methyl)-N-phenethylbenzo[b]thiophene-2-carboxamide] | – | 25.6 | – | – | 2.51 | 23.2 | –
